{"source": "patent EP0610475B1", "about": "“NERVE-DERIVED TRANSG[…] USEFUL FOR INDUCING NERVE REGENERATION” (YEDA RESEARCH AND DEVELOPMENT COMPANY, LTD., priority 1992, dated 1994)", "system": "nerve-derived transglutaminase (TGN) purified from regenerating fish optic nerve, Carp (Cyprinus carpio), 55 kDa", "description": "The incorporation of radioactive putrescine to a carrier protein is an assay characteristic of enzymes of the transglutaminase family. Any carrier protein that has lysine residues may be used in the assay, such as casein, bovine serum albumin, etc.\nIn this example, activity characteristic of the nerve-derived transglutaminase was measured by incorporation of [^14C)putrescine into N,N-dimethylcasein (Chakrabarty et al., 1987). The purified TGN enzyme eluted from the TG-Ab affinity column with glycine in Example 3 was dialyzed for 2 hours in the presence of N,N-dimethylcasein (1 mg/ml), before being added to the reaction mixture. The reaction was initiated by addition of […] TGN ([…]), followed by incubation for 20 min at 37°C and terminated by the addition of ice-cold trichloroacetic acid (TCA; final concentration, 5%).\nThe enzyme activity was titrated with respect to temperature and pH and substrate concentration. […] Titration was carried out by measuring incorporation of [^14C]putrescine to caseine in the presence of TGN.", "note": "Where two headings read alike, the source gives them in different places.", "data": [{"smiles": "NCCCCN", "note": "[putrescine]", "values": [{"measurement": "Km", "setting": "incorporation of [^14C]putrescine to caseine in the presence of TGN, calculated from titration of activity as a function of substrate concentration, 20 min at 37°C", "value": 0.55, "unit": "µM"}, {"measurement": "Km", "setting": "read-out: Km in the incorporation of putrescine, calculated as a function of substrate, list of TGN characteristics, unit inferred", "value": 0.55, "unit": "µM"}]}]}
